Laboratory results as given in patent US9173823B2, “Preparation for sun protection” (INSTITUT BIOPHYTIS SAS, priority 2009, dated 2015).

Key:
[1] = system: human skin explants; assay: Sunburn cell (SBC) count in UV-irradiated human skin explants; assay type: cell-based; conditions: for reduction of the number of SBC in the epidermis compared to the untreated and irradiated skin: 7 days of treatment, UV irradiation; for reduction of the number of SBC in the epidermis compared to the untreated and irradiated skin / Number of SBC per cm, Irradiated, Average: P1 330 ng·mL-1, P2 and P3 15.5 ng·mL-1; for Number of SBC per cm, Irradiated, Average: UVB 0.30 J/cm^2 and UVA 9 J/cm^2 on day 7, collection 24 hours after irradiation; for Number of SBC per cm, Unirradiated, Mean: unirradiated explants, day 8, P1 330 ng·mL-1, P2 and P3 15.5 ng·mL-1 in medium from day 0
Experimental: 3. Experimental Study of the Effect of a Bixin-Enriched Urucum Extract, of Bixin and of Norbixin (FIG. 1). Following treatment and UV-B irradiation of human skin explants, a Masson trichrome staining allows the visualization and counting of SBC. 3.1 Tested Products: • P1: urucum organic extract titrated at 6% bixin (330 ng·mL-1) • P2: pure bixin (15.5 ng·mL-1) • P3: pure norbixin (15.5 ng·mL-1) 27 explants (3 per condition) with a diameter of 10 mm were prepared from an abdominoplasty. The explants were cultured at 37° C. in a humid atmosphere containing 5% CO2. These explants were divided into nine (9) batches as follows: Urucum extract was dissolved in DMSO. The three products were added to the medium on the first day (D0), in order to achieve the desired final concentrations. The final amount of DMSO in the medium still remained below 1%. The explants of the control batch received no treatment. On day 7, the explants were exposed to UVB at a dose of 0.30 J/cm^2 and UVA at a dose of 9 J/cm^2. Non-irradiated batches were placed in the dark during the whole irradiation time. Immediately after irradiation, the explants were put back into culture medium. At day 8, i.e. 24 hours after irradiation, the three explants from each batch were taken and processed in the same way. After 48 hours of fixation in Bouin's fixative, samples were dried and impregnated in paraffin using a Leica 1020 automated dehydration controller. Microscopic observations were made by optical microscopy using a Leica DMLB model, with the ×40 lens. Observation of the morphology was performed on paraffin sections after staining with Goldner's variant of Masson's trichrome. Sunburn cells (SBC) were counted throughout each epidermis. The length of each epidermis was measured using the measurement module of the Leica IM1000 and the number of SBC per cm of skin was then calculated.

[2] = after ingestion of an oily annatto solution containing 16 mg bixin, cited from earlier work; for time for which the plasma concentration was observed: norbixin above 25 ng·mL^−1, bixin at 10 ng·mL^−1
[3] = system: plasmid DNA; conditions: norbixin 10 μM, 10 μM H2O2, Sn^2+ or Fe^2+ ions; cited from earlier work
[4] = system: E. coli; conditions: UV-radiation in the presence of H2O2 or superoxide anion; cited from earlier work
[5] = system: SOS system; conditions: in the presence of norbixin; cited from earlier work
[6] = system: Salmonella typhimurium; conditions: cited from earlier work
[7] = bixin in an extract standardized at 92% bixin; norbixin for an extract standardized at 91% of norbixin; cited from earlier work
[8] = cell-free, xanthine/xanthine oxidase system; cited from earlier work
[9] = system: chromosomal damage; conditions: mice, oral, 200 mg per kilogram of body weight before γ-irradiation (1.5-3.0 Gy); cited from earlier work
[10] = orally administered prior to chemotherapy; cited from earlier work
[11] = single dose of 120 mg or daily dose of 90 mg over 23 days; cited from earlier work

| SMILES | reduction of the number of SBC in the epidermis compared to the untreated and irradiated skin [1] [%] | Number of SBC per cm, Irradiated, Average [1] [per cm] | Number of SBC per cm, Unirradiated, Mean [1] [per cm] | plasma concentration [2] | time for which the plasma concentration was observed [2] | daily acceptable dose (JECFA) [7] [mg/kg] | superoxide scavenging ability, decreasing order [8] | further results |
| --- | --- | --- | --- | --- | --- | --- | --- | --- |
| CC(/C=C/C=C(C)/C=C/C(=O)O)=C\C=C\C=C(C)\C=C\C=C(C)\C=C\C(=O)O (stereo in doubt) [P3, norbixin] | 84.4 | 25.5 | 0.3 | higher than 25 ng·mL^−1 | more than 6 hours | 0.6 |  | protection of plasmid DNA against breaks [3]: protect plasmid DNA; increase of survival of bacteria (factor) [4]: 10; reduction of the UV-C induced SOS system [5]: 2.3 times; reduction of the mutagenic effect of H2O2 [6]: 87% |
| COC(=O)/C=C/C(C)=C\C=C\C(C)=C\C=C\C=C(C)\C=C\C=C(C)\C=C\C(=O)O [P2, bixin] | 74.4 | 41.9 | 0.3 | 0.01 µg/mL | less than 4 hours | 12 | canthaxanthin>bixin>lutein>β-carotene | chromosomal damage, micronucleus test [9]: reduced the occurrence of chromosomal damage; effect on side-effects of chemotherapy [10]: reduce the side-effects of chemotherapy |
| CC1=C(/C=C/C(C)=C/C=C/C(C)=C/C=C/C=C(C)/C=C/C=C(C)/C=C/C2=C(C)C(=O)CCC2(C)C)C(C)(C)CCC1=O [canthaxanthin] |  |  |  |  |  |  | canthaxanthin>bixin>lutein>β-carotene |  |
| CC1=C[C@H](O)CC(C)(C)[C@H]1/C=C/C(C)=C/C=C/C(C)=C/C=C/C=C(C)/C=C/C=C(C)/C=C/C1=C(C)C[C@@H](O)CC1(C)C [lutein] |  |  |  |  |  |  | canthaxanthin>bixin>lutein>β-carotene |  |
| CC1=C(/C=C/C(C)=C/C=C/C(C)=C/C=C/C=C(C)/C=C/C=C(C)/C=C/C2=C(C)CCCC2(C)C)C(C)(C)CCC1 [β-carotene] |  |  |  |  |  |  | canthaxanthin>bixin>lutein>β-carotene | protective effect against sun [11]: ineffective |
